Measurements as given in patent US20250248979A1, “NOVEL GPX4 INHIBITORS AND USES THEREOF” (THE TRUSTEES OF COLUMBIA UNIVERSITY IN THE CITY OF NEW YORK, priority 2022, published 2025).

Biological target: T1, GPX4 (Homo sapiens, UniProt P36969)
T1 sequence (P36969 1-170 isoform P36969-2): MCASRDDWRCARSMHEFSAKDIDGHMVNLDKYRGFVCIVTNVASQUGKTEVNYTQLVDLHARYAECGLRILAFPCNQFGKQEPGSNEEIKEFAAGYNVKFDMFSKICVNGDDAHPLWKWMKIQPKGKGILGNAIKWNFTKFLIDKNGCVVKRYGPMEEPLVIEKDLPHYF
Experiment: GPX4 activity assay in cell lysates (NADPH-coupled)
Type: biochemical
Set-up: endogenous in cells; host or cells: A-673 cell lysate
Protocol: Determination of GPX4 activity in cell lysates was performed as previously described by Roveri et al. 1994 with minor modifications. Briefly, the assay measures the consumption of NADPH, which has a characteristic absorbance at 340 nm, over time as a proxy for GPX4 activity. The rationale for this is that as GPX4 reduces phospholipid hydroperoxides, it oxidizes glutathione, which is then regenerated by glutathione reductase at the expense of NADPH. NADPH is added to the assay in excess such that the reduction of oxidized glutathione is not the rate-limiting reaction in the assay. Thus, the resulting reduction in NADPH absorbance over time reflects GPX4 activity.
The GPX4-specific substrate phosphatidylcholine hydroperoxide (PCOOH) was prepared by enzymatic hydroperoxidation. Specifically, 0.3 mM phosphatidylcholines (Sigma-Aldrich) were incubated with 0.7 mg soybean lipoxidase type IV (Sigma-Aldrich) in 22 mL of 0.2 M Tris-HCl pH 8.8 with 3 mM sodium deoxycholate at room temperature under continuous stirring for 30 minutes. A Sep-Pak C18 cartridge (Waters-Millipore) was pre-washed with methanol and equilibrated with water, then the substrate mixture was loaded. The column was washed with 10 volumes of water and PCOOH was eluted with 2 mL of methanol.
To prepare the cell lysate containing native GPX4, A-673 cells were cultured with 20 nM sodium selenite to confluency over two days then harvested and washed with cold PBS. Cells were then resuspended at 10 million cells per 1 mL LCW lysis buffer (0.5% peroxide-free Triton X-100, 0.5% sodium deoxycholate salt, 150 mM NaCl, 20 mM Tris-HCl pH 7.5, 10 mM EDTA, 30 mM sodium pyrophosphate, and complete protease inhibitor cocktail), vortexed for 30 seconds, and incubated on ice for 15 minutes. After lysis, the lysates were centrifuged at 14,000×g and 4° C. for 15 minutes. The supernatants were transferred to new pre-chilled tube and the debris pellet was discarded. The protein concentration in the lysate was determined for normalization using the BCA Protein Assay Kit (Pierce).
To measure GPX4 activity, 50 μL of cell lysate was combined with 200 μL activity assay buffer (0.1% Triton X-100, 100 mM Tris-HCl pH 8.0, 10 mM sodium azide, 5 mM EDTA, 0.6 IU/mL glutathione reductase, 0.5 mM NADPH and 3 mM GSH) and compounds of interest in a clear 96-well plate and incubated at 37° C. for 45 minutes. Compounds were dissolved in DMSO. All conditions were tested in triplicate. PCOOH substrate was added to the mixture to initiate GPX4 activity just before reading the plate. The absorbance of NADPH at 340 nm was monitored kinetically over time for 25 minutes. Buffer-only controls and controls without substrate containing only the methanol vehicle were performed to assess background and baseline signal. GPX4 activity was calculated as previously reported by Stolwijk et al. 2020 and results were analyzed in GraphPad Prism 9.

| GPX4% inhibition at 5 μM [%] | GPX4% inhibition at 2.5 μM [%] | Compound | also measured |
| --- | --- | --- | --- |
|  | 45.5 ± 4.4 | Cn1nc(C(=O)NC(C)(C)COC(=O)CCl)c2ccc(-c3ccc(Br)cc3)cc21 [QW-603] |  |
|  | 72.2 ± 5.9 | COc1ccc(-c2ccc3c(C(=O)NC(C)(C)COC(=O)CBr)nn(C)c3c2)cc1Cl [QW-608] |  |
|  | 6.7 ± 11.9 | C=CC(=O)OCC(C)(C)NC(=O)c1nn(C)c2cc(-c3ccc(OC)c(Cl)c3)ccc12 [QW-609] |  |
|  | 81.5 ± 1.9 | COc1ccc(-c2ccc3c(C(=O)NC(C)(C)COC(=O)CCl)nn(C)c3c2)cc1Br [QW-611] |  |
|  | −5.7 ± 11.7 | COc1ccc(-c2ccc3c(C(=O)NC(C)(C)COC(=O)C#C[Si](C)(C)C)nn(C)c3c2)cc1Cl [QW-612] |  |
|  | 80.9 ± 3.4 | CN1CCN(Cc2ccc(-c3ccc4c(C(=O)NC(C)(C)COC(=O)CCl)nn(C)c4c3)cc2)CC1 [QW-617] |  |
|  | 18.1 ± 5.9 | Cn1nc(C(=O)NC(C)(C)COC(=O)CCl)c2ccc(-c3ccc(NS(C)(=O)=O)cc3)cc21 [QW-618] |  |
|  | 42.6 ± 8.0 | Cn1nc(C(=O)NC(C)(C)COC(=O)CCl)c2ccc(-c3ccc(C(=O)N4CCN(C(=O)OC(C)(C)C)CC4)cc3)cc21 [QW-619] |  |
|  | 63.8 ± 7.8 | C=C(C)C(=O)Nc1ccc(-c2ccc3c(C(=O)NC(C)(C)COC(=O)CCl)nn(C)c3c2)cc1 [QW-620] |  |
|  | 14.9 ± 16.7 | Cn1nc(C(=O)NC(C)(C)CNC(=O)CCl)c2ccc(-c3ccc(N4CCOCC4)c(Cl)c3)cc21 [QW-629] |  |
|  | 14.3 ± 16.5 | CSc1ccc(-c2ccc3c(C(=O)NC(C)(C)CNC(=O)CCl)nn(C)c3c2)cc1Cl [QW-631] |  |
|  | −4.9 ± 21.8 | COC(=O)c1ccc(-c2ccc3c(C(=O)NC(C)(C)CNC(=O)CCl)nn(C)c3c2)cc1Cl [QW-632] |  |
|  | 14.0 ± 15.4 | CC(C)Oc1ccc(-c2ccc3c(C(=O)NC(C)(C)CNC(=O)CCl)nn(C)c3c2)cc1Cl [QW-635] |  |
| 76.4 ± 32.7 | 50.2 ± 22.0 | Cn1nc(C(=O)NC(C)(C)CNC(=O)CCl)c2ccc(-c3ccc(Cl)c(Cl)c3)cc21 [QW-636] |  |

Second part, the molecule before the results:

| Compound | GPX4% inhibition at 5 μM [%] | GPX4% inhibition at 2.5 μM [%] | also measured |
| --- | --- | --- | --- |
| COc1ccc(-c2ccc3c(C(=O)NC(C)(C)COC(=O)CCl)nn(C)c3c2)cc1F [QW-567] | 54.7 ± 3.4 |  |  |
| CN(C)c1ccc(-c2ccc3c(C(=O)NC(C)(C)COC(=O)CCl)nn(C)c3c2)cc1 [QW-568] | 67.5 ± 3.9 |  | GPX4 inhibition rate (concentration not given): 50% |
| COC(=O)c1ccc(-c2ccc3c(C(=O)NC(C)(C)COC(=O)CCl)nn(C)c3c2)cc1Cl [QW-571] | 82.5 ± 5.2 |  |  |
| COC(=O)C=Cc1ccc(-c2ccc3c(C(=O)NC(C)(C)COC(=O)CCl)nn(C)c3c2)cc1 [QW-574] | 72.8 ± 7.7 |  |  |
| Cn1nc(C(=O)NC(C)(C)COC(=O)CCl)c2ccc(-c3ccc(C=CCCl)cc3)cc21 [QW-575] | 35.9 ± 1.3 |  |  |
| Cn1nc(C(=O)NC(C)(C)COC(=O)CCl)c2ccc(-c3cnn(Cc4ccccc4)c3)cc21 [QW-579] | 66.3 ± 3.4 |  |  |
| CC(C)(COC(=O)CCl)NC(=O)c1n[nH]c2cc(-c3ccc(N4CCOCC4)c(Cl)c3)ccc12 [QW-583] | 70.9 ± 6.7 |  | GPX4 inhibitory activity, result in words: slight loss of inhibitory activity |
| COc1ccc(-c2ccc3c(c2)c(C(=O)NC(C)(C)COC(=O)CCl)nn3C)cc1Cl [QW-584] | 9.5 ± 5.1 |  |  |
| Cn1nc(C(=O)NC(C)(C)COC(=O)CCl)c2cc(-c3ccc(N4CCOCC4)c(Cl)c3)ccc21 [QW-585] | 23.3 ± 5.2 |  |  |
| COc1ccc(F)c(-c2ccc3c(C(=O)NC(C)(C)COC(=O)CCl)nn(C)c3c2)c1 [QW-588] | 59.5 ± 5.7 |  |  |
| COc1ccc(Cl)cc1-c1ccc2c(C(=O)NC(C)(C)COC(=O)CCl)nn(C)c2c1 [QW-590] | 53.5 ± 6.3 |  |  |
| Cn1nc(C(=O)NC(C)(C)COC(=O)CCl)c2ccc(-c3ccc(C=O)cc3)cc21 [QW-591] | 69.4 ± 3.3 |  |  |
| Cn1nc(C(=O)NC(C)(C)COC(=O)CCl)c2ccc(-c3cccc(C=O)c3)cc21 [QW-599] |  | 51.0 ± 4.4 |  |
